The source of these data is US9790231B2 (LUPIN LIMITED, priority 2013, dated 2017).

For orientation: IC50 means the point on the concentration scale where inhibition reaches its midpoint.

The experiment deals with IL-2 secretion by Jurkat T cells. Briefly: Inhibition of IL-2 secretion (PHA-stimulated Jurkat T cells, ELISA). It counts as cell-based. The note with it: Homo sapiens, 20 to 24 hours. As for the experimental part: The CRAC channel modulatory activity of the compounds were thus evaluated by measuring the secretion of IL-2 by antigen stimulated T-cells in vitro. Alternatively, such activity can also be evaluated by assay methods known to one skilled in the art.
Inhibition of IL-2 secretion: Jurkat T cells were seeded at a density of 0.5 to 1 million cells per well in RPMI medium. Test compounds from this invention were added to the cells at different concentrations. This was followed by the addition of PHA, a T cell mitogen after 10 minutes. The cells were then incubated for 20 to 24 hours in a CO2 incubator at 37° C. After incubation with the compounds, cells were centrifuged; the supernatant was collected and processed for ELISA to quantitate the amount of IL-2 secreted. A commercial ELISA kit (R&D Systems, Inc. Minneapolis, Minn., USA) was used to estimate the IL-2 concentrations. Amount of IL-2 secreted by cells stimulated with PHA was considered as a 100% maximal signal and the decrease in amount of IL-2 secreted by cells treated with the test compounds was expressed as percent inhibition of the maximal signal. The dose response data was analyzed using 4-parametric sigmoidal dose response (variable slope) curve-fit.
For `Cc1cc2c(cc1-c1ccc(NC(=O)c3c(F)cccc3F)cc1)OC(C)(C)CC2=O` [Example 1, 2,6-Difluoro-N-(4-(2,2,6-trimethyl-4-oxochroman-7-yl)phenyl)benzamide], the IC50 was in the range of 25 to 50 nM.

In turn, `CCc1cc2c(cc1-c1ccc(NC(=O)c3c(F)cccc3F)cc1)OC(C)(C)CC2=O` [Example 2, N-(4-(6-Ethyl-2,2-dimethyl-4-oxochroman-7-yl)phenyl)-2,6-difluorobenzamide] yielded an IC50 of less than 25 nM.

The compound `Cc1cc2c(cc1-c1cnc(NC(=O)c3c(F)cccc3F)cn1)OC(C)(C)CC2=O` [Example 4, 2,6-Difluoro-N-(5-(2,2,6-trimethyl-4-oxochroman-7-yl)pyrazin-2-yl)benzamide] gave an IC50 of less than 25 nM.

Regarding `CCc1cc2c(cc1-c1cnc(NC(=O)c3c(F)cccc3F)cn1)OC(C)(C)CC2=O` [Example 5, N-(5-(6-Ethyl-2,2-dimethyl-4-oxochroman-7-yl)pyrazin-2-yl)-2,6-difluorobenzamide], the half-inhibitory concentration (IC50) is less than 25 nM.

`Cc1cc2c(cc1-c1ccc(NC(=O)c3c(F)cccc3F)nc1)OC(C)(C)CC2=O` [Example 6] returned a concentration for half-maximal inhibition (IC50) of 25 to 50 nM.

In turn, `Cc1c(-c2cnc(NC(=O)c3c(F)cccc3F)cn2)ccc2c1OC(C)(C)CC2` [Example 7, 2,6-Difluoro-N-(5-(2,2,8-trimethylchroman-7-yl)pyrazin-2-yl)benzamide] registered a concentration for half-maximal inhibition (IC50) of 50 to 100 nM.

For the compound `Cc1cc2c(cc1-c1ccc(NC(=O)c3c(F)cccc3Cl)cc1)OC1(CCC1)CC2` [Example 8, 2-Chloro-6-fluoro-N-(4-(6-methylspiro[chroman-2,1′-cyclobutan]-7-yl)phenyl)benzamide], the IC50 was less than 25 nM.

The compound `Cc1cc2c(cc1-c1ccc(NC(=O)c3c(C)cccc3F)cc1)OC1(CCC1)CC2` [Example 9, 2-Fluoro-6-methyl-N-(4-(6-methylspiro[chroman-2,1′-cyclobutan]-7-yl)phenyl)benzamide] showed an IC50 of 25 to 50 nM.

For `Cc1cc2c(cc1-c1ccc(NC(=O)c3c(C)cccc3F)cc1)OC1(CCC1)CC2=O` [Example 10, 2-Fluoro-6-methyl-N-(4-(6-methyl-4-oxospiro[chroman-2,1′-cyclobutan]-7-yl)phenyl)benzamide], the IC50 fell in the range of 25 to 50 nM.

`Cc1cc2c(cc1-c1ccc(NC(=O)c3c(F)cccc3Cl)cc1)OC1(CCC1)CC2=O` [Example 11, 2-Chloro-6-fluoro-N-(4-(6-methyl-4-oxospiro[chroman-2,1′-cyclobutan]-7-yl)phenyl)benzamide] gave a half-inhibitory concentration (IC50) of 25 to 50 nM.

Regarding `Cc1cc2c(cc1-c1ccc(C(=O)Nc3c(F)cccc3F)cc1)OC1(CCC1)CC2=O` [Example 13, N-(2,6-Difluorophenyl)-4-(6-methyl-4-oxospiro[chroman-2,1′-cyclobutan]-7-yl)benzamide], the IC50 lay within 25 to 50 nM.

The compound `Cc1cc2c(cc1-c1ccc(NC(=O)c3c(F)cccc3F)cc1)OC1(CCC1)CC2=O` [Example 16, 2,6-Difluoro-N-(4-(6-methyl-4-oxospiro[chroman-2,1′-cyclobutan]-7-yl)phenyl)benzamide] had a 50% inhibitory concentration (IC50) of less than 25 nM.

Compound `Cc1cc2c(cc1-c1ccc(NC(=O)c3c(F)cccc3F)cc1)C(=O)CC1(CCC1)O2` [Example 17, 2,6-Difluoro-N-(4-(7-methyl-4-oxospiro[chroman-2,1′-cyclobutan]-6-yl)phenyl)benzamide] showed an IC50 of 50 to 100 nM.

With `Cc1cc2c(cc1-c1ccc(NC(=O)c3c(F)cccc3F)cc1)CCC1(CCC1)O2` [Example 18, 2,6-Difluoro-N-(4-(7-methylspiro[chroman-2,1′-cyclobutan]-6-yl)phenyl)benzamide], the IC50 was in the range of 50 to 100 nM.

Turning to `Cc1c(-c2ccc(NC(=O)c3c(F)cccc3F)cc2)ccc2c1OC1(CCC1)CC2=O` [Example 19, 2,6-Difluoro-N-(4-(8-methyl-4-oxospiro[chroman-2,1′-cyclobutan]-7-yl)phenyl)benzamide], the IC50 is 100 to 500 nM.

With `CCc1cc2c(cc1-c1ccc(NC(=O)c3c(F)cccc3F)cc1)OC1(CCC1)CC2=O` [Example 20, N-(4-(6-Ethyl-4-oxospiro[chroman-2,1′-cyclobutan]-7-yl)phenyl)-2,6-difluorobenzamide], the concentration for half-maximal inhibition (IC50) is less than 25 nM.

Turning to `Cc1cc2c(cc1-c1ccc(NCc3c(F)cccc3F)cc1)OC1(CCC1)CC2=O` [Example 21, 7-(4-((2,6-Difluorobenzyl)amino)phenyl)-6-methylspiro[chroman-2,1′-cyclobutan]-4-one], the concentration for half-maximal inhibition (IC50) fell in the range of 25 to 50 nM.

In the case of `Cc1cc2c(cc1-c1ccc(NC(=O)c3c(F)cccc3F)cc1)OC1(CCC1)CC2` [Example 22, 2,6-Difluoro-N-(4-(6-methylspiro[chroman-2,1′-cyclobutan]-7-yl)phenyl)benzamide], the 50% inhibitory concentration (IC50) was less than 25 nM.

For `Cc1c(-c2ccc(NC(=O)c3c(F)cccc3F)cc2)ccc2c1OC1(CCC1)CC2` [Example 23, 2,6-Difluoro-N-(4-(8-methylspiro[chroman-2,1′-cyclobutan]-7-yl)phenyl)benzamide], the half-inhibitory concentration (IC50) was in the range of 50 to 100 nM.

For `CCc1cc2c(cc1-c1ccc(NC(=O)c3c(F)cccc3F)cc1)OC1(CCC1)CC2` [Example 24, N-(4-(6-Ethylspiro[chroman-2,1′-cyclobutan]-7-yl)phenyl)-2,6-difluorobenzamide], the IC50 is less than 25 nM.

The compound `Cc1cc2c(cc1-c1ccc(NC(=O)c3c(F)cccc3F)cn1)OC(C)(C)CC2=O` [Example 27, 2,6-Difluoro-N-(6-(2,2,6-trimethyl-4-oxochroman-7-yl)pyridin-3-yl)benzamide] had an IC50 of 25 to 50 nM.

On to `Cc1cc2c(cc1-c1ccc(NCc3c(F)cccc3F)cc1)OC(C)(C)CC2=O` [Example 33, 7-(4-((2,6-Difluorobenzyl)amino)phenyl)-2,2,6-trimethylchroman-4-one], for which the half-inhibitory concentration (IC50) was less than 25 nM.

Consider `Cc1cc2c(cc1-c1ccc(NCc3c(F)cccc3F)nc1)OC(C)(C)CC2=O` [Example 35, 7-(6-((2,6-Difluorobenzyl)amino)pyridin-3-yl)-2,2,6-trimethylchroman-4-one], for which the concentration for half-maximal inhibition (IC50) was less than 25 nM.

`Cc1cc2c(cc1-c1cnc(NC(=O)c3c(F)cccc3F)cn1)OC1(CCC1)CC2=O` [Example 36, 2,6-Difluoro-N-(5-(6-methyl-4-oxospiro[chroman-2,1′-cyclobutan]-7-yl)pyrazin-2-yl)benzamide] returned an IC50 of less than 25 nM.

Consider `Cc1cc2c(cc1-c1ccc(NCc3c(F)cccc3F)nc1)OC1(CCC1)CC2=O` [Example 39, 7-(6-((2,6-Difluorobenzyl)amino)pyridin-3-yl)-6-methylspiro[chroman-2,1′-cyclobutan]-4-one], for which the IC50 was less than 25 nM.

The compound `CCc1cc2c(cc1-c1cnc(NC(=O)c3c(F)cccc3F)cn1)OC1(CCC1)CC2=O` [Example 41, N-(5-(6-Ethyl-4-oxospiro[chroman-2,1′-cyclobutan]-7-yl)pyrazin-2-yl)-2,6-difluorobenzamide] showed an IC50 of 50 to 100 nM.

Turning to `CCc1cc2c(cc1-c1ccc(C(=O)Nc3c(F)cncc3F)cc1)OC(C)(C)CC2=O` [Example 42, N-(3,5-Difluoropyridin-4-yl)-4-(6-ethyl-2,2-dimethyl-4-oxochroman-7-yl)benzamide], the IC50 was less than 25 nM.

The compound `Cc1cc2c(cc1-c1ccc(C(=O)Nc3c(F)cncc3F)cc1)OC(C)(C)CC2=O` [Example 43, N-(3,5-Difluoropyridin-4-yl)-4-(2,2,6-trimethyl-4-oxochroman-7-yl)benzamide] came in with an IC50 of 100 to 500 nM.

For `COC(=O)C1(C)CC(=O)c2cc(C)c(-c3cnc(NC(=O)c4c(F)cccc4F)cn3)cc2O1` (stereo not drawn) [Example 45, Methyl 7-(5-(2,6-difluorobenzamido)pyrazin-2-yl)-2,6-dimethyl-4-oxochroman-2-carboxylate], the IC50 was in the range of 100 to 500 nM.

As for `CCc1cc2c(cc1-c1ccc(NC(=O)c3c(F)cccc3F)cc1)OC(C)(C)CC2` [Example 48b, N-(4-(6-Ethyl-2,2-dimethylchroman-7-yl)phenyl)-2,6-difluorobenzamide], the IC50 was less than 25 nM.

For `CCc1cc2c(cc1-c1ccc(C(=O)Nc3c(F)cncc3F)cc1)OC(C)(C)CC2` [Example 49, N-(3,5-Difluoropyridin-4-yl)-4-(6-ethyl-2,2-dimethylchroman-7-yl)benzamide], the 50% inhibitory concentration (IC50) was less than 25 nM.

In turn, `Cc1cc2c(cc1-c1ccc(C(=O)Nc3c(F)cncc3F)cc1)OC(C)(C)CC2` [Example 50, N-(3,5-Difluoropyridin-4-yl)-4-(2,2,6-trimethylchroman-7-yl)benzamide] registered an IC50 of less than 25 nM.

`Cc1cc2c(cc1-c1ccc(NC(=O)c3c(F)cccc3F)cc1)OC(C)(CO)CC2=O` (stereo not drawn) [Example 51, 2,6-Difluoro-N-(4-(2-(hydroxymethyl)-2,6-dimethyl-4-oxochroman-7-yl)phenyl)benzamide]: the 50% inhibitory concentration (IC50) is less than 25 nM.

Turning to `Cc1cc2c(cc1-c1ccc(NC(=O)c3c(F)cccc3F)nc1)OC(C)(CO)CC2=O` (stereo not drawn) [Example 54, 2,6-Difluoro-N-(5-(2-(hydroxymethyl)-2,6-dimethyl-4-oxochroman-7-yl)pyridin-2-yl)benzamide], the IC50 lay within 50 to 100 nM.

`CCc1cc2c(cc1-c1ccc(NC(=O)c3c(F)cccc3F)cc1)OC(C)(CO)CC2=O` (stereo not drawn) [Example 58, N-(4-(6-Ethyl-2-(hydroxymethyl)-2-methyl-4-oxochroman-7-yl)phenyl)-2,6-difluorobenzamide] gave a half-inhibitory concentration (IC50) of 50 to 100 nM.

For `Cc1c(-c2ccc(NC(=O)c3c(F)cccc3F)cc2)ccc2c1OC(C)(C)CC2` [Example 59, 2,6-Difluoro-N-(4-(2,2,8-trimethylchroman-7-yl)phenyl)benzamide], the 50% inhibitory concentration (IC50) is less than 25 nM.
